Results taken from US6569404B1, “Phase shift colloids as ultrasound contrast agents” (priority 1993, dated 2003).
“And” between values parts separate entries of the source, which are not always exact repeats. Equal values may be shown once.

Test: Acoustic backscatter: gray scale intensity (videodensity) in water beaker at 37° C., Hewlett Packard 77020 scanner, 5.0 MHz
Conditions: emulsion with Fluorad 170 C; 0.2 mL in 1000 mL water at 37° C.; six seconds; backgrounds 2.9, 3.0, 3.6
Description: Two solutions were prepared to simulate the administration to an organism of either a colloidal dispersion of a low boiling liquid or the liquid, neat.
The emulsions contained Fluorad 170 C as surfactant and were formed by applying acoustic energy from a waterbath sonicator.

| SMILES | grayscale intensity |
| --- | --- |
| FC1(F)C(F)(F)C(F)(F)C(F)(F)C1(F)F [perfluorocyclopentane] | 158.9 units |

Test: not given
Conditions: at 25° C.; cited from earlier work

| SMILES | Vapor Pressure |
| --- | --- |
| ClCCCl [1,2, Dichloroethane, reference compound] | 87 mmHg at 25 °C |

Test: Backscatter persistence and intensity of 2% mixtures in saline, 1000 mL water at 37° C., Hewlett-Packard 77020A
Conditions: 2% in saline, 1.0 mL in 1000 mL water at 37° C.; saline+air set as 1
Description: The following emulsions were formulated and tested according to methods described in Example 18.
All solutions were made as a 2% solution in saline. A volume of 0.1 cc of each chemical was comminuted with 5 cc saline through a 3-way stopcock for 25 passes. A volume of 1.0 mL of the mixture was immediately injected through a 1.2 μm filter into a stirring water bath containing 1000 mL water at 37° C. The resulting backscatter was then recorded with the use of a Hewlett-Packard 77020A Ultrasound System at […].

| SMILES | Ratio of Persistence |
| --- | --- |
| ClCCCl [1,2, Dichloroethane, reference compound] | 6 |
| FC(F)(F)C(Cl)Br (stereo not drawn) [Halothane] | 6 |
| CCCCCCCCC [Nonane] | 9 |
| FC1(F)C(F)(F)C(F)(F)C2(F)C(F)(F)C(F)(F)C(F)(F)C(F)(F)C2(F)C1(F)F (stereo not drawn) [Perfluorodecalin] | 9 |

Same assay, conditions: backscatter intensity qualitatively ranked from 0 to 5

| SMILES | Ratio of Intensity |
| --- | --- |
| ClCCCl [1,2, Dichloroethane, reference compound] | 0.25 |
| FC(F)(F)C(Cl)Br (stereo not drawn) [Halothane] | 0.25 |
| CCCCCCCCC [Nonane] | 0.5 |
| FC1(F)C(F)(F)C(F)(F)C2(F)C(F)(F)C(F)(F)C(F)(F)C(F)(F)C2(F)C1(F)F (stereo not drawn) [Perfluorodecalin] | 2.0 |

Test: not given
Conditions: Chemical List of low boiling liquids, Example 45; cited from earlier work

| SMILES | Boiling Point |
| --- | --- |
| FC(F)(Br)Br [Methane, dibromo difluoro] | 24.5 degrees Celcius |
| FC(F)(Cl)Cl [Methane, dichloro difluoro] | −29.8 degrees Celcius |
| FC(Cl)Cl [Methane, dichloro-fluoro] | 9.0 degrees Celcius |
| ClCCl [Methane, dichloro] | 40.0 degrees Celcius |
| FCF [Methane, difluoro] | −51.6 degrees Celcius |
| [SiH3]C[SiH3] [Methane, disilano] | 14.7 degrees Celcius |
| CI [Methane, iodo-] | 42.4 degrees Celcius |
| FC(F)(F)I [Methane, iodo-trifluoro] | −22.5 degrees Celcius |
| O=[N+]([O-])C(F)(F)F [Methane, nitro-trifluoro] | −31.1 degrees Celcius |
| O=NC(F)(F)F [Methane, nitroso-trifluoro] | −84.0 degrees Celcius |
| FC(F)(F)F [Methane, tetrafluoro] | −129.0 degrees Celcius |
| FC(Cl)(Cl)Cl [Methane, trichlorofluoro] | 23.7 degrees Celcius |
| C [Methane] | −164.0 degrees Celcius |
| FC(F)(F)SCl [Methanesulfenylchloride, trifluoro] | −0.7 degrees Celcius |
| CS [Methanethiol] | 62 degrees Celcius |
| COC [Methyl ether] | −25.0 degrees Celcius |
| COC(C)C [Methyl isopropyl ether] | 32.5 degrees Celcius |
| CON=O [Methyl nitrite] | −12.0 degrees Celcius |
| [Ne] [Neon] | −246.0 degrees Celcius |
| CC(C)(C)C [Neopentane] | 9.5 degrees Celcius |

| SMILES | Boiling Point |
| --- | --- |
| [N]=O [Nitric oxide] | −151.6 degrees Celcius |
| N#N [Nitrogen (N2)] | −196.0 degrees Celcius |
| O=NCl [Nitrosyl chloride] | −5.5 degrees Celcius |
| [N-]=[N+]=O [Nitrous oxide] | −88.5 degrees Celcius |
| O=C(O)c1c(Cl)c(Cl)c(Cl)c(Cl)c1C(=O)O [Phthalic acid, tetrachloro] | 2.0 degrees Celcius |
| CC1CCC(C)C(C)N1 (stereo not drawn) [Piperidine,2,3,6-trimethyl] | 36.0 degrees Celcius |
| O=[N+]([O-])C(F)(F)C(F)(F)C(F)(F)F [Propane, heptafluoro-1-nitro] | 25.0 degrees Celcius |
| O=NC(F)(F)C(F)(F)C(F)(F)F [Propane, heptafluoro-1-nitrose] | −12.0 degrees Celcius |
| FC(F)(F)C(F)(F)C(F)(F)F [Propane, perfluoro] | −36.0 degrees Celcius |
| FC(F)=C(F)C(F)(F)F [Propylene, perfluoro] | −29.4 degrees Celcius |
| C#CC [Propyne] | −23.2 degrees Celcius |
| N#CC(F)(F)F [Trifluoroacetonitrile] | −64.0 degrees Celcius |
| FC(F)(F)SC(F)(F)F [Trifluoromethyl sulfide] | −22.2 degrees Celcius |
| CN(C)C [Trimethyl amine] | 2.9 degrees Celcius |
| [F][W]([F])([F])([F])([F])[F] [Tungsten hexafluoride] | 17.5 degrees Celcius |
| C#CC=C [Vinyl acetylene] | 5.1 degrees Celcius |
| C=COC=C [Vinyl ether] | 28.0 degrees Celcius |
| [Xe] [Xenon] | −108.0 degrees Celcius |
| CP(C)NP(C)C [bis(Dimethyl phosphino) amine] | 33.5 degrees Celcius |

Same assay, conditions: boiling point under standard pressure conditions; chemical list arranged by total atoms; cited from earlier work

| SMILES | Boiling Point |
| --- | --- |
| O=C(C(F)(F)F)C(F)(F)[N+](=O)[O-] [Pentafluoronitroacetone] | 32.6 degrees Celcius |
| F[C](F)(F)[Ge]([C](F)(F)F)([C](F)(F)F)[C](F)(F)F [Tetrakis(trifluoromethyl) germane] | 31.7 degrees Celcius |
| F[C](F)(F)[Ge]([Cl])([C](F)(F)F)[C](F)(F)F [Tris-(trifluoromethyl)-germaniumchloride] | 37 degrees Celcius |
| O=C(C(F)(F)F)C(F)(F)Br [bromo-pentafluoro-acetone] | 31 degrees Celcius |
| CCCCB(F)F [butyl-difluoro-borane] | 35 degrees Celcius |
| FC(F)(F)C(F)(F)C(F)(F)C(F)(F)F [decafluoro-butane] | −1.7 degrees Celcius |
| FC(F)I [difluoro-iodo-methane] | 21.6 degrees Celcius |
| CSC [dimethyl sulfide] | 36 degrees Celcius |
| CCC1CC1 [ethyl-cyclopropane] | 35.8 degrees Celcius |
| CCN(C)C [ethyl-dimethyl-amine] | 36.4 degrees Celcius |
| CCOC [ethyl-methyl ether] | 6.6 degrees Celcius |
| CC[Si](F)(F)F [ethyl-trifluoro-silane] | −4.4 degrees Celcius |
| C=COCC [ethyl-vinyl ether] | 35 degrees Celcius |
| NC=O [formamide] | 2.18 degrees Celcius |
| CC(C)N [isopropylamine] | 31.7 degrees Celcius |
| CC1CCC1 [methyl-cyclobutane] | 36 degrees Celcius |
| CC1CC1 [methyl-cyclopropane] | 0.7 degrees Celcius |
| FC(F)(F)C(F)(F)C(F)(C(F)(F)F)C(F)(F)F [nonafluoro-2-trifluoromethyl-butane] | 30.12 degrees Celcius |
| C1CC12CC2 [spiropentane] | 35 degrees Celcius |
| CCC[Si](F)(F)F [trifluoro-propyl-silane] | 25 degrees Celcius |

Same assay, conditions: chemicals of Example 52; cited from earlier work

| SMILES | B.P. |
| --- | --- |
| ClCCCl [1,2, Dichloroethane, reference compound] | 83 °C |
| FC(F)(F)C(Cl)Br (stereo not drawn) [Halothane] | 50 °C |
| CCCCCCCCC [Nonane] | 151 °C |
| FC1(F)C(F)(F)C(F)(F)C2(F)C(F)(F)C(F)(F)C(F)(F)C(F)(F)C2(F)C1(F)F (stereo not drawn) [Perfluorodecalin] | 141 °C |

Same assay, conditions: cited from earlier work

| SMILES | Boiling Point |
| --- | --- |
| FC1(F)C(F)(F)C(F)(F)C(F)(F)C1(F)F [perfluorocyclopentane] | 22.5 °C and 22 °C |

Same assay, conditions: dispersed phase of emulsions of Example 18; cited from earlier work

| SMILES | Boiling Point |
| --- | --- |
| FC(F)(F)C(F)(F)C(F)(F)C(F)(F)C(F)(F)C(F)(F)C(F)(F)C(F)(F)F [Perfluorooctane, reference compound] | 98 °C |
